ChEMBL document CHEMBL1143535 (Bioorg Med Chem Lett, 2005)
Several values for one entry are separate records, joined by “and”; a condition that tells them apart may be missing. Identical values can stand only once.

molecular target: T1, Muscarinic acetylcholine receptor M2 (Rattus norvegicus, UniProt P10980); assay: Affinity for rat Muscarinic acetylcholine receptor M2
T1 sequence (P10980 whole entry): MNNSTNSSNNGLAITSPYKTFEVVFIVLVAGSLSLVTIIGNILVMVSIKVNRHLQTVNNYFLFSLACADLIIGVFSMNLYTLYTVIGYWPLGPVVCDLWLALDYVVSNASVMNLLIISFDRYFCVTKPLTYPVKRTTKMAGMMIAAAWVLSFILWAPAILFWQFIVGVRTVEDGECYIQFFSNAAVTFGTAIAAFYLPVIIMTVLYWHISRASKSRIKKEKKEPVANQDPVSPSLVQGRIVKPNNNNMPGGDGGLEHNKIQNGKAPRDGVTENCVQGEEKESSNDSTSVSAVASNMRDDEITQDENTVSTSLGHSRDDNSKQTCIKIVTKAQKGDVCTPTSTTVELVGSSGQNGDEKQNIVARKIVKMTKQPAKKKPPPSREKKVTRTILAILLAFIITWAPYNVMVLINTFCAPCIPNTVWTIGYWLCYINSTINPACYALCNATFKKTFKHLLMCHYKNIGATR

For `Cc1ccc(O)c(C(CCN2C[C@H]3C[C@H]3C2C)c2ccccc2)c1` (stereo not given in full), the Ki was 34 nM and 42 nM.

`Cc1ccc(OCc2ccccc2)c(C(CCN2C[C@@]3(C)C[C@@]3(C)C2)c2ccccc2)c1` (stereo not given in full) and `Cc1ccc(OCc2ccccc2)c(C(CCN2C[C@H]3C[C@H]3C2)c2ccccc2)c1` (stereo not given in full) cannot be ordered by Ki: > 10000 nM for the first, > 10000 nM for the second.

Compared with `Cc1ccc(O)c(C(CCN2C[C@H]3C[C@@]3(C)C2)c2ccccc2)c1` (stereo not given in full), `Cc1ccc(O)c(C(CCN2C[C@@]3(C)C[C@@]3(C)C2)c2ccccc2)c1` (stereo not given in full) is higher in Ki: 221 nM for the first, > 1000 nM for the second.

`O=C(NCC#CCN1CC2CC2C1)C(O)(c1ccc(F)cc1)c1ccc(F)cc1` (stereo not given) and `O=C(NCC#CCN1CC2CC2C1)C(O)(c1ccccc1)c1ccccc1` (stereo not given) are within 1.5-fold of each other in Ki: 736 nM for the first, 639 nM for the second.

First: Cc1ccc(OCc2ccccc2)c(C(CCN2C[C@H]3C[C@H]3C2C)c2ccccc2)c1 (stereo not given in full)
Second: Cc1ccc(O)c(C(CCN2CC3C[C@@H]3C2)c2ccccc2)c1 (single isomer, unassigned)
The Ki of the first is higher: > 10000 nM for the first, 105 nM for the second. The second binds more tightly here.

For `O=C(NCC#CCN1CC2CC2C1)C(O)(c1ccccc1)C1CCCCC1` (stereo not given), the Ki was 3580 nM.
